{"source": "paper PMC10455244", "about": "“Alpha-Mangostin: A Potent Inhibitor of TRPV3 and Pro-Inflammatory Cytokine Secretion in Keratinocytes” (International Journal of Molecular Sciences, 2023)", "molecular_target": "T1, TRPV3 (G573S) (Homo sapiens, UniProt Q8NET8, G573S)", "T1 construct": "host or cells: HEK 293T (transient transfection, pEGFP-N1 co-transfected as a marker)", "T1 sequence (Q8NET8 1-790 G573S)": "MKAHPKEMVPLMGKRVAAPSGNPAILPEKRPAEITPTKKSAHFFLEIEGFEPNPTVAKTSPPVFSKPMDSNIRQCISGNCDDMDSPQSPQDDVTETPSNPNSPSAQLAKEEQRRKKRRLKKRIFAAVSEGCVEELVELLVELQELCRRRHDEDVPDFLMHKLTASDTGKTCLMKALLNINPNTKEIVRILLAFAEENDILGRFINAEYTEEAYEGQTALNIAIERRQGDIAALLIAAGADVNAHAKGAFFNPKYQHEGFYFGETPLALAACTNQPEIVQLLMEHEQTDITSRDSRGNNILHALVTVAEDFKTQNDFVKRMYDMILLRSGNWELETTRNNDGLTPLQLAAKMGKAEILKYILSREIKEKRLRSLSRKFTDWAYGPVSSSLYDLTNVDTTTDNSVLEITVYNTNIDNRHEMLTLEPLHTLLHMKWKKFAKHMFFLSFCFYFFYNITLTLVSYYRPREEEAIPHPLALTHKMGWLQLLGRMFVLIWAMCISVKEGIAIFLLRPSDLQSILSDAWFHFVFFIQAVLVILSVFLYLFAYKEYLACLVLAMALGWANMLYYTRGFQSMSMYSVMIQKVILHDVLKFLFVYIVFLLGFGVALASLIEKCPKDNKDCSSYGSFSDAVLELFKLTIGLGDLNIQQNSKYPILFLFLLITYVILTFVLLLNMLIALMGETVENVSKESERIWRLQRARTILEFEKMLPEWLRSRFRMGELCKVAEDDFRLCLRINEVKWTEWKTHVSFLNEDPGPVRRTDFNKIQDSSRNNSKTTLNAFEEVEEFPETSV", "test": "Fura-2 calcium imaging, spontaneous Ca2+ increase in TRPV3 (G573S)-expressing HEK 293T cells", "type": "cell-based", "details": "1 µM", "description": "Figure 4 Alpha-mangostin inhibited the activity of hyperactive TRPV3 mutant channels and rescued mutation-induced cell death. (A) Alpha-mangostin inhibited the channel current in representative TRPV3 (G573S)- and TRPV3 (G573C)-expressing HEK 293T cells. […] Currents were normalized to the response at −100 mV before adding alpha-mangostin. (C) Alpha-mangostin inhibited TRPV3-mediated intracellular calcium increase in TRPV3 (G573S)-expressing HEK 293T cells. […] The bar graph on the right summarizes the change in the intracellular calcium rise inhibited by alpha-mangostin. […]\nSubsequently, the effects of alpha-mangostin on the activities of the mutated channels were further evaluated using intracellular calcium measurements.\nFura-2 AM (Thermo Fisher Scientific) was utilized as a fluorescent indicator to measure calcium signal, as described previously. […] To measure the cytosolic Ca^2+ level, a sequential excitation of Fura-2 is performed at 340 nm and 380 nm; then, the emission signals resulting from each excitation wavelength are measured and the ratio of these signals is calculated. […] Samples were excited using a wavelength of 380 nm for 20 ms, followed by 340 nm for 100 ms, and fluorescence at 510 nm was recorded. Recorded data were then analyzed using NIS-Element AR Version 5.00.00 (Nikon Instruments, Melville, NY, USA). […]", "data": [{"molecule": "COc1c(O)cc2oc3cc(O)c(CC=C(C)C)c(O)c3c(=O)c2c1CC=C(C)C", "note": "[Alpha-mangostin]", "values": [{"measurement": "Effect on spontaneous intracellular calcium increase", "value": "potently attenuated"}]}]}
